Laboratory results published in patent publication US20060165656A1, “Medicinal preparation having chemotherapeutic encapsulated therein” (priority 2002, published 2006).
Read-outs that look alike come from different tables or passages of the source.

Tests used:
[1] = tested on: Mouse colon cancer-derived CT-26 cells transplanted in BALB/cAnNCrj male mice; assay: In vivo experiment (2): tumor volume and weight, HVJ-E/BLM into the tumor with or without intraperitoneal CDDP; details: Day 21, physiological saline into the tumor
[2] = tested on: mouse colon carcinoma cell CT26; details: 30 minutes at 37° C., counted two days later, HCl
Description: A microtube containing the sample was centrifuged at 15,000 rpm for 15 minutes at 4° C. to give the HVJ-E vector as a precipitate, and the supernatant was removed. […] Further, 2 μl of 3% Triton-X100 was added thereto to prepare a sample containing Triton-X100 at a final concentration of 0.1%, which was then left on ice for 15 minutes. Thereafter, 500 μl PBS solution was added thereto. The microtube was centrifuged at 15,000 rpm for 15 minutes at 4° C., and the supernatant was removed without removing the precipitate, and 500 μl PBS solution was added again to the precipitate. The microtube was centrifuged again at 15,000 rpm for 15 minutes at 4° C., and the supernatant was removed without removing the precipitate.
The resulting precipitate was suspended in 180 μl PBS, and the resulting sample solution was pipetted in a volume of 30 μl/microtube into 6 microtubes. Five microlitters of protamine sulfate solution prepared at 5 mg/ml and 500 μl DMEM solution (Dulbecco's modified Eagle medium) were added to each tube.
The above sample solution was added to mouse colon carcinoma cell CT26 prepared on a 6-well plate. The plate was kept for 30 minutes in an incubator at 37° C., and then the medium was exchanged with 500 μl medium (DMEM containing 10% FCS). The cells were incubated for 2 days in a CO2 incubator at 37° C. Two days later, the number of viable cells was counted to evaluate the anticancer effect.

[NH2][Pt]([NH2])([Cl])[Cl] [CDDP, cisplatin]
tumor weight ([1]; CDDP 0.2 mg/body i.p.): 1619.79 mg | average tumor volume ([1]; CDDP 0.2 mg/body once intraperitoneally, 10 mice): 1720.14 mm^3 | tumor weight ([1]; CDDP 0.4 mg/body i.p.): 1164.13 mg | average tumor volume ([1]; CDDP 0.4 mg/body once intraperitoneally, 3 mice): 1367.62 mm^3

bleomycin HCl
number of viable cells (Mean) ([2]; 1/50 bleomycin group: bleomycin 50 μg/DMEM 500 μl/well): 81800 | number of viable cells (Mean) ([2]; 1/500 bleomycin group: bleomycin 5 μg/DMEM 500 μl/well): 164,600 | number of viable cells (Mean) ([2]; 1/500 bleomycin group: bleomycin 5 μg/DMEM 500 μl/well, listed as Bleomycin): 164600 | number of viable cells (Mean) ([2]; 1/5,000 bleomycin group: bleomycin 500 ng/DMEM 500 μl/well): 196,800 | number of viable cells (Mean) ([2]; 1/5,000 bleomycin group: bleomycin 500 ng/DMEM 500 μl/well, listed as Bleomycin): 196800
